Consider 3 molecules from patent publication US4699901A, “Diacyl derivatives of glycerylphosphorylcholine, their preparation, and antihyperlipidemic compositions” (Neopharmed SpA, priority 1984, dated 1987).

For assay [1], the system named is cholesterol and triglycerides. Briefly: hyperlipidemie test induced in the rat by the administration of Triton WR 1330. The format is in vivo. As to conditions: Triton induced hyperlipidemia, at the minimum dose of 37.5 mg/kg p.os. The text has this: The bis(pyridyl-3-carboxilate) esters of formula (I) show an antidislipemic activity higher than that of nicotinic acid.

The test system of assay [2] is cholesteryl ester hydrolysis and synthesis (acyl-CoA: cholesterol-acyltransferase). As to conditions: cited from earlier work.
Assay [3] has as its system levels of acetylcholine in the cortex. Briefly: experimental model in the mouse of the presinaptic neurochemical damage of Alzheimer disease (Mantione). The format is in vivo. Particulars: Alzheimer model (Mantione et al.).

For `C[N+](C)(C)CCOP(=O)([O-])OC[C@@H](COC(=O)c1cccnc1)OC(=O)c1cccnc1` [optically active form L(alpha), L(alpha) glycerylphosphorylcholine bis(pyridyl-3-carboxilate)], in assay [1], the inhibition of cholesterol was 50% and the inhibition of triglycerides came out at 50%.

Take `CCCCC/C=C\C/C=C\CCCCCCCC(=O)OC[C@H](COP(=O)([O-])OCC[N+](C)(C)C)OC(=O)CCCCCCC/C=C\C/C=C\CCCCC` [polienoic phosphatidylcholine, glyceril phosphorylcholine Dilinoleate]: in assay [2], the anti-aterogenic action result is “An anti-aterogenic action”, the “hydrolysis of cholesteryl ester” value was “an increase of the hydrolysis of cholesteryl ester” and the “synthesis of cholesteryl esters from acyl-CoA: cholesterol-acyltransferase” value is “a reduction of the synthesis of cholesteryl esters”.

As to “L(alpha) glycerylphosphorylcholine bis(pyridyl-3-carboxilate) calcium salt”, in assay [3], the “inhibition of the regional diminution of the levels of acetylcholine in the cortex” value is “inhibits, in a dose-answer form, the regional diminution of the levels of acetylcholine in the cortex”.
